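In this assay, cells in 96-well plates receive the compound at five concentrations for 48 hours. Endpoints are linearly interpolated between the surrounding concentrations. GI50 marks 50% less growth. The concentration for full growth arrest is given as TGI.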
Legend:
Experiment in all cases: growth of human tumour cells (NCI), 48 h
[1] = test system: 786-0 renal
[2] = test system: HCC-2998 colon
[3] = test system: IGROV1 ovarian
[4] = test system: NCI-H226 lung
[5] = test system: NCI-H23 lung
[6] = test system: RPMI-8226 leukemia
[7] = test system: SK-MEL-28 melanoma
[8] = test system: SN12C renal
[9] = test system: SNB-19 CNS
[10] = test system: UO-31 renal

Compound | GI50 [1] | TGI [1] | GI50 [2] | TGI [2] | GI50 [3] | TGI [3] | GI50 [4] | TGI [4] | GI50 [5] | TGI [5] | GI50 [6] | TGI [6] | GI50 [7] | TGI [7] | GI50 [8] | TGI [8] | GI50 [9] | TGI [9] | GI50 [10] | TGI [10]
O=P(CCCCP(=O)(c1ccccc1)c1ccccc1)(c1ccccc1)c1ccccc1.[Cl][Sn]([Cl])([c]1ccccc1)[c]1ccccc1 | 1.07 µM | 2.48 µM | 2.76 µM | 10.1 µM | 3.9 µM | 8.39 µM | 5.07 µM | 11.3 µM | 1.48 µM | 3.48 µM | 332 nM | 1.16 µM | 1.7 µM | 3.32 µM | 2.1 µM | 5.76 µM | 4.18 µM | 18 µM | 1.68 µM | 3.19 µM
COc1cc(NC(=O)CSc2nc3ccc(C)cc3c(=O)n2Cc2ccccc2)cc(OC)c1OC | 3.2 µM | 14.6 µM | > 100 µM | > 100 µM | 32.5 µM | > 100 µM | 3.2 µM | 22.3 µM | 8.3 µM | 42.3 µM | 69300 nM | > 100 µM | 7.04 µM | 59.7 µM | 25.4 µM | > 100 µM | 21.4 µM | > 100 µM | 5.97 µM | > 100 µM
O=C(O)CCC(NC(=O)c1ccccc1)C(=O)O (centres undefined) | – | > 100 µM | – | > 100 µM | – | > 100 µM | – | – | – | > 100 µM | – | > 100 µM | – | > 100 µM | – | > 100 µM | – | > 100 µM | – | > 100 µM
O=C1C2C=CC(C2)C(c2ccc(O)cc2)N1O (centres undefined) | – | > 100 µM | – | > 100 µM | – | > 100 µM | – | > 100 µM | – | > 100 µM | – | > 100 µM | – | > 100 µM | – | > 100 µM | – | > 100 µM | – | > 100 µM
C=C(C)[C@@H]1CC[C@]2(C)[C@H](CC=C3[C@@H]4[C@@H](C)[C@H](C)CC[C@]4(C(N)=O)CC[C@]32C)[C@@]1(C)CCC#N | 2.26 µM | 5.75 µM | 4.8 µM | 18.8 µM | 5.58 µM | > 100 µM | 5.09 µM | 27 µM | 5.72 µM | > 100 µM | 2180 nM | 6.27 µM | 7.57 µM | 22.7 µM | 3.36 µM | 10.7 µM | 6.31 µM | > 100 µM | 3.46 µM | 26.1 µM
CCC[CH2][Sn]([CH2]CCC)([CH2]CCC)[O]C(=O)c1ccc(Cl)cc1Cl | 0.13 µM | 0.259 µM | 0.168 µM | 0.31 µM | 0.15 µM | 0.308 µM | – | – | 0.13 µM | 0.296 µM | 146 nM | – | 0.159 µM | 0.302 µM | 0.145 µM | 0.35 µM | 0.179 µM | 0.359 µM | 0.146 µM | 0.304 µM
Cn1ccc2c(C(=O)c3ccccc3)cccc2c1=O | – | > 100 µM | – | > 100 µM | – | > 100 µM | – | – | – | – | – | > 100 µM | – | > 100 µM | – | > 100 µM | – | – | – | –
CC(=O)OCC(=O)[C@@]12OC(C)(C)O[C@@H]1C[C@H]1[C@@H]3CC=C4C[C@@H](O)CC[C@]4(C)[C@H]3CC[C@@]12C | – | > 100 µM | – | – | – | > 100 µM | – | > 100 µM | – | > 100 µM | – | > 100 µM | – | > 100 µM | – | > 100 µM | – | > 100 µM | – | > 100 µM
CC(C)COCC(CN(Cc1ccccc1)c1ccccc1)N1CCCC1 (centres undefined) | 3.46 µM | 12.8 µM | 2.25 µM | 6.16 µM | 3.18 µM | 15 µM | 2.28 µM | 9.48 µM | 2.82 µM | 14.6 µM | 1910 nM | 5.41 µM | 3.48 µM | 13.8 µM | 3.48 µM | 15.4 µM | 3.07 µM | 12.2 µM | 1.96 µM | 13.1 µM
COc1ccccc1C1c2cc3c(cc2OC(O)(CO)C1C(=O)O)OCO3 (centres undefined) (tested in a mixture with another compound) | – | > 100 µM | – | > 100 µM | – | > 100 µM | – | > 100 µM | – | > 100 µM | – | > 100 µM | – | > 100 µM | – | > 100 µM | – | – | – | > 100 µM
FC(F)(F)c1ccc(C#Cc2ccccc2C#Cc2ccccc2)cc1 | 46.1 µM | > 100 µM | 32.7 µM | 53.1 µM | > 100 µM | > 100 µM | 30.1 µM | 99.9 µM | 49 µM | > 100 µM | – | – | > 100 µM | > 100 µM | – | – | 69.3 µM | > 100 µM | 49.7 µM | > 100 µM
CN(C)C=[N+]=[N-] | – | > 100 µM | – | > 100 µM | – | > 100 µM | – | > 100 µM | – | > 100 µM | – | > 100 µM | – | – | – | > 100 µM | – | > 100 µM | – | > 100 µM
NCCN.NCCN.O=C([O-])CCl.O=C([O-])CCl.[Co+3].[O-][Cl+3]([O-])([O-])[O-] | > 100 µM | > 100 µM | > 100 µM | > 100 µM | > 100 µM | > 100 µM | – | – | > 100 µM | > 100 µM | > 100000 nM | > 100 µM | > 100 µM | > 100 µM | > 100 µM | > 100 µM | > 100 µM | > 100 µM | > 100 µM | > 100 µM
O=S(=O)(c1cccc2c(Cl)cccc12)N1CCCNCC1 | 11.1 µM | 23.1 µM | – | – | 18.6 µM | 34.6 µM | 11.8 µM | 25.3 µM | 13.8 µM | 27.1 µM | 13900 nM | 32.7 µM | 10.8 µM | 22.7 µM | 12.2 µM | 24.6 µM | 16.3 µM | 30.5 µM | 14.1 µM | 28.5 µM
C[N+]1(C)C/C(=C\c2ccccc2)C(=O)/C(=C/c2ccccc2)C1 | – | > 100 µM | – | > 100 µM | – | > 100 µM | – | > 100 µM | – | > 100 µM | – | > 100 µM | – | > 100 µM | – | 73.2 µM | – | – | – | > 100 µM
CN1C(=O)C(CC(=O)O)NC1=S (centres undefined) | – | > 100 µM | – | > 100 µM | – | > 100 µM | – | – | – | > 100 µM | – | > 100 µM | – | > 100 µM | – | > 100 µM | – | > 100 µM | – | > 100 µM

From PubChem BioAssay (NCI)
